In the series the test system is human apolipoprotein B mRNA. The series can be described thus: Inhibition of human apolipoprotein B mRNA levels in HepG2 cells, quantitative real-time PCR. The class given is cell-based. Particulars: for % Change in apolipoprotein B mRNA expression / % INHIB / % INHIB 50 nm / % INHIB 150 nm: HepG2 cells; for % Change in apolipoprotein B mRNA expression: 24 hour (Table 41); for % INHIB (inhibition of human apolipoprotein B mRNA levels): HepG2 cells treated with 150 nM of compound, quantitative real-time PCR. The method, boiled down:
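HepG2 cells at 80% confluency were transfected with antisense oligonucleotide using 3.75 μg/mL Lipofectin in Opti-MEM for 4-7 h and harvested 16-24 h after treatment. Apolipoprotein B mRNA was measured by real-time RT-PCR and normalized to GAPDH or RiboGreen total RNA. Percent inhibition came from untreated-control standard curves.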
On the technique in general: Quantitative PCR measures a nucleic acid by following its amplification.

Setting [1] is: Table 1, 150 nM, averages from two experiments.
Where [2] appears, read: 50 nm oligonucleotide, variable deoxy gap position.
The mark [3] stands for this setting: 150 nm oligonucleotide, variable deoxy gap position.
The mark [4] stands for this setting: Table 13 gene walk, 50 nM, averages from two experiments.
[5] abbreviates: Table 13 gene walk, 150 nM, averages from two experiments.
The mark [6] stands for this setting: human apolipoprotein B mRNA, oligonucleotides targeting genomic sequence SEQ ID NO 334, averages from two experiments.
[7] abbreviates: Table 11 gene walk, 50 nM, averages from two experiments.
[8] abbreviates: Table 11 gene walk, 150 nM, averages from two experiments.

In the oligonucleotide strings, read from the 5' end, every base follows the letter of its sugar. An asterisk marks phosphorothioate; unmarked linkages are phosphodiester. Other units and linkages are bracketed, terminal groups are in braces. A string of capitals states the bases alone. e = 2'-O-(2-methoxyethyl) (MOE); [5mC] = 5-methylcytosine; d = 2'-deoxy (DNA)

The results in this text go back to patent US7803930B2, “Antisense modulation of apolipoprotein B-expression” (Isis Pharmaceuticals, Inc., priority 2002, dated 2010).

Turning to “332781 (antisense CTCAGTCTGCTTCGCA; sugars from the 5' end e3 d10 e3, all phosphorothioate, methylation of C not given here) [compound 332781]”, the “% Change in apolipoprotein B mRNA expression” value by setting is: (10 nM) −9%; (50 nM) −35%; (150 nM) −60%. Turning to “281644 (e[5mC]*eT*eG*eT*e[5mC]*dT*d[5mC]*d[5mC]*dT*dA*d[5mC]*d[5mC]*dA*dA*dT*eG*e[5mC]*eT*eG*eG; antisense) [compound 281644]”, for the setting “averages from two experiments”, the “% INHIB (inhibition of human apolipoprotein B mRNA levels)” value came out at 26%. For the substance “147796 (antisense eG*e[5mC]*eA*eG*e[5mC]*d[5mC]*dA*dG*dT*d[5mC]*dG*d[5mC]*dT*dT*dA*eT*e[5mC]*eT*e[5mC]*e[5mC]) [compound 147796]”, the “% INHIB” value under setting [1] is 8%. In the case of “308653 (antisense GCCTCAGTCTGCTTCGCACC; 7-10-3 2'-MOE gapmer, phosphorothioate, chemistry not fully specified) [compound 308653]”, the “% INHIB 50 nm” value under setting [2] is reported as 73%. Also, under setting [3], the “% INHIB 150 nm” value is on record as 89%. Regarding “271036 (eA*eA*eG*eA*eG*dG*d[5mC]*d[5mC]*d[5mC]*dT*d[5mC]*dT*dA*dG*d[5mC]*eT*eG*eT*eA*eA; antisense) [compound 271036]”, the “% INHIB (inhibition of human apolipoprotein B mRNA levels)” value (averages from two experiments) amounted to 95%.

On to “270997 (antisense eG*e[5mC]*eA*e[5mC]*eT*dG*dA*dG*dG*d[5mC]*dT*dG*dT*d[5mC]*d[5mC]*eA*e[5mC]*eA*e[5mC]*eT) [compound 270997]”, for which, where the note is “averages from two experiments”, the “% INHIB (inhibition of human apolipoprotein B mRNA levels)” value was 24%.

Take “281620 (antisense e[5mC]*e[5mC]*eT*eG*eA*dT*dA*dT*dT*d[5mC]*dA*dG*dA*dA*d[5mC]*eG*e[5mC]*eA*eG*e[5mC]) [compound 281620]”: where the note is “averages from two experiments”, the “% INHIB (inhibition of human apolipoprotein B mRNA levels)” value is given as 89%. On to “308628 (e[5mC]*e[5mC]*eT*e[5mC]*eA*dG*dT*d[5mC]*dT*dG*d[5mC]*dT*dT*d[5mC]*dG*e[5mC]*eG*e[5mC]*e[5mC]*eT; antisense) [compound 308628]”, for which the “% INHIB 50 nm” value under setting [4] is on record as 61%. In addition, the “% INHIB 150 nm” value under setting [5] is 92%. As to “301039 (eT*eG*eG*eT*eG*d[5mC]*d[5mC]*dA*dG*d[5mC]*dT*dT*dT*dG*dG*eT*eG*e[5mC]*eA*eG; antisense) [compound 301039]”, the “% INHIB (inhibition of human apolipoprotein B mRNA levels)” value (averages from two experiments) is reported as 73%.

For “301118 (antisense eA*eT*eG*eT*eG*d[5mC]*dA*d[5mC]*dA*d[5mC]*dA*dA*dG*dG*dA*e[5mC]*eA*eT*eA*eG) [compound 301118]”, the “% INHIB” value under setting [6] is recorded as 33%. Same read-out and setting: to “301150 (eG*eA*eA*eA*eG*dG*dA*dA*dG*dG*dA*d[5mC]*dT*dA*dG*e[5mC]*eA*eT*eA*eT; antisense) [compound 301150]” belongs 39%.

For “147782 (antisense eG*e[5mC]*e[5mC]*eT*e[5mC]*dG*dG*d[5mC]*d[5mC]*dT*d[5mC]*dG*d[5mC]*dG*dG*e[5mC]*e[5mC]*e[5mC]*eT*eG) [compound 147782]”, under setting [1], the “% INHIB” value came out at 67%. Turning to “281631 (antisense eT*e[5mC]*eA*eA*e[5mC]*dG*dG*d[5mC]*dA*dT*d[5mC]*dT*d[5mC]*dT*d[5mC]*eA*eT*e[5mC]*eT*e[5mC]) [compound 281631]”, the “% INHIB (inhibition of human apolipoprotein B mRNA levels)” value (averages from two experiments) came to 88%.

Regarding “301108 (antisense e[5mC]*eA*eT*eT*eA*dG*dA*dT*dA*d[5mC]*d[5mC]*dT*dG*dG*dA*e[5mC]*eA*e[5mC]*e[5mC]*eT) [compound 301108]”, the “% INHIB” value under setting [6] amounted to 29%.

For the substance “301069 (eG*eG*e[5mC]*eT*eG*dA*dA*dG*d[5mC]*d[5mC]*d[5mC]*dA*dT*dG*d[5mC]*eT*eG*eA*e[5mC]*eT; antisense) [compound 301069]”, under setting [6], the “% INHIB” value is 44%.

For the substance “301141 (eT*eA*e[5mC]*eA*eA*dG*dG*dT*dG*dT*dT*dT*d[5mC]*dT*dT*eA*eA*eG*eA*eA; antisense) [compound 301141]”, the “% INHIB” value under setting [6] was found to be 38%. “301128 (e[5mC]*e[5mC]*eT*e[5mC]*e[5mC]*dT*dG*dG*dT*d[5mC]*d[5mC]*dT*dG*d[5mC]*dA*eG*eT*e[5mC]*eA*eA; antisense) [compound 301128]”: under setting [6], the “% INHIB” value was found to be 56%. Regarding “308608 (eA*eT*eA*eT*eT*dT*dG*dA*dA*dT*dG*dT*d[5mC]*dA*dT*eG*eG*eT*eA*eG; antisense) [compound 308608]”, the “% INHIB 50 nm” value under setting [7] worked out at 70%. For the same substance, the “% INHIB 150 nm” value under setting [8] is listed as 85%.

In the case of “301186 (antisense e[5mC]*e[5mC]*eT*eT*e[5mC]*dT*dT*dT*dA*d[5mC]*d[5mC]*dT*dT*dA*dG*eG*eT*eG*eG*e[5mC]) [compound 301186]”, the “% INHIB” value under setting [6] is 37%. For “308624 (eT*e[5mC]*eG*e[5mC]*eG*d[5mC]*d[5mC]*dT*dT*d[5mC]*dT*dG*d[5mC]*dT*dT*eG*eA*eG*eT*eT; antisense) [compound 308624]”, under setting [4], the “% INHIB 50 nm” value came to 69%. The “% INHIB 150 nm” value under setting [5] was found to be 89%. Take “147784 (antisense e[5mC]*eA*eG*e[5mC]*eG*d[5mC]*d[5mC]*dA*dG*d[5mC]*dA*dG*d[5mC]*dG*d[5mC]*e[5mC]*eA*eG*e[5mC]*eA) [compound 147784]”: the “% INHIB” value under setting [1] was found to be 70%. On to “301103 (antisense eT*e[5mC]*eT*eA*eA*dG*dA*dG*dG*dT*dA*dG*dA*dG*d[5mC]*eT*eA*eA*eA*eG) [compound 301103]”, for which the “% INHIB” value under setting [6] is on record as 7%. On to “308659 (antisense GCCTCAGTCTGCTTCGCACC; 9-10-1 2'-MOE gapmer, phosphorothioate, chemistry not fully specified) [compound 308659]”, for which, under setting [2], the “% INHIB 50 nm” value stood at 70%. Besides, the “% INHIB 150 nm” value under setting [3] is 93%.

Consider “308590 (antisense eA*e[5mC]*e[5mC]*eT*eT*d[5mC]*dT*dG*d[5mC]*dT*dT*dG*dA*dG*dT*eT*eA*e[5mC]*eA*eA) [compound 308590]”, for which the “% INHIB 50 nm” value under setting [7] is reported as 26%. The “% INHIB 150 nm” value under setting [8] was found to be 98%. In the same order, the values of “308619 (eG*eT*eA*eG*eG*d[5mC]*dT*d[5mC]*d[5mC]*dT*dT*dT*dT*dA*dG*eG*eT*eT*eA*e[5mC]; antisense) [compound 308619]” are 69% and 74%. As to “301077 (eG*eG*e[5mC]*eA*eG*dG*dA*dG*dG*dA*dA*d[5mC]*d[5mC]*dT*d[5mC]*eG*eG*eG*e[5mC]*eA; antisense) [compound 301077]”, the “% INHIB” value under setting [6] is given as 55%. Turning to “271008 (antisense e[5mC]*e[5mC]*e[5mC]*eG*eG*dT*d[5mC]*dA*dG*d[5mC]*dG*dG*dA*dT*dA*eG*eT*eA*eG*eG) [compound 271008]”, the “% INHIB (inhibition of human apolipoprotein B mRNA levels)” value (averages from two experiments) was found to be 37%. On to “332785 (antisense GCTTCGCACC; linkages s4 o1 s4 (s phosphorothioate, o phosphodiester), sugars by position and methylation of C not given here; 2'-MOE wings flank a DNA gap) [compound 332785]”, for which the “% Change in apolipoprotein B mRNA expression” value by setting is: (10 nM) “+5%”; (50 nM) −2%; (150 nM) −4%. Take “301131 (e[5mC]*eT*eT*eT*eT*dT*d[5mC]*dA*dG*dA*d[5mC]*dT*dA*dG*dA*eT*eA*eA*eG*eA; antisense) [compound 301131]”: under setting [6], the “% INHIB” value is 0%. Consider “301166 (antisense eA*eT*eT*e[5mC]*eT*dG*d[5mC]*d[5mC]*dT*d[5mC]*dT*dT*dA*dG*dA*eA*eA*eG*eT*eT) [compound 301166]”, for which the “% INHIB” value under setting [6] is 38%. Take “301185 (antisense eT*eG*e[5mC]*eT*eT*d[5mC]*dG*d[5mC]*dA*d[5mC]*d[5mC]*dT*dG*dG*dA*e[5mC]*eG*eA*eG*eT) [compound 301185]”: the “% INHIB” value under setting [6] turned out to be 51%. For “308600 (antisense eG*eT*eA*eG*e[5mC]*d[5mC]*dT*d[5mC]*dA*dG*dT*d[5mC]*dT*dG*d[5mC]*eT*eT*e[5mC]*eG*e[5mC]) [compound 308600]”, the “% INHIB 50 nm” value under setting [7] was 72%. The “% INHIB 150 nm” value under setting [8] is 89%. For the substance “281608 (antisense eG*eT*eA*eG*eA*dG*dA*d[5mC]*d[5mC]*dA*dA*dA*dT*dG*dT*eA*eA*eT*eG*eT) [compound 281608]”, for the setting “averages from two experiments”, the “% INHIB (inhibition of human apolipoprotein B mRNA levels)” value turned out to be 62%. Regarding “281613 (antisense eG*eT*eA*eT*eG*dG*dA*dA*dA*dT*dA*dA*d[5mC]*dA*d[5mC]*e[5mC]*e[5mC]*eT*eT*eG) [compound 281613]”, the “% INHIB (inhibition of human apolipoprotein B mRNA levels)” value (averages from two experiments) came to 70%.

For “301147 (eA*eT*eT*eA*eT*dG*dA*dT*dA*dA*dA*dA*dT*d[5mC]*dA*eA*eT*eT*eT*eT; antisense) [compound 301147]”, the “% INHIB” value under setting [6] amounted to 19%. “301181 (antisense eA*eT*e[5mC]*eT*e[5mC]*dT*d[5mC]*dT*dG*dT*d[5mC]*d[5mC]*dT*d[5mC]*dA*eT*e[5mC]*eT*eT*e[5mC]) [compound 301181]”: the “% INHIB” value under setting [6] is recorded as 28%. Still for that read-out and setting: to “301200 (antisense eT*eT*eG*eA*eA*dT*dG*dA*d[5mC]*dA*d[5mC]*dT*dA*dG*dA*eT*eT*eT*eT*e[5mC]) [compound 301200]” belongs 37%. On to “301226 (antisense e[5mC]*eT*eT*eA*eA*dA*dT*d[5mC]*dA*d[5mC]*dA*d[5mC]*dT*dA*dT*eG*eT*eG*eT*eT) [compound 301226]”, for which the “% INHIB” value (Table 15, 150 nM, averages from two experiments) amounted to 39%.
